Measurements reported in patent US20080114007A1 (priority 2006, published 2008).

How the values were obtained:
[1] = biological target: c-fms (Homo sapiens, UniProt P07333); assay: Autophosphorylation, fluorescence polarization competition immunoassay; assay type: biochemical; settings: 10 nM c-fms, 1 mM ATP, 5 mM MgCl2, 45 min; averages of three independent measurements
Procedure: The assay buffer used was 100 mM 4-(2-hydroxyethyl)piperazine 1-ethanesulfonic acid (HEPES), pH 7.5, 1 mM 1,4-dithio-DL-threitol (DTT), 0.01% (v/v) Tween-20. Compounds were diluted in assay buffer containing 4% dimethylsulfoxide (DMSO) just prior to the assay. […] The kinase reaction was initiated by adding 2 μL of 5 mM ATP (Sigma) in assay buffer. The final concentrations in the assay were 10 nM c-fms, 1 mM ATP, 5 mM MgCl2, 2% DMSO. Control reactions were ran in each plate: in positive and negative control wells, assay buffer (made 4% in DMSO) was substituted for the compound; in addition, positive control wells received 1.2 μL of 50 mM ethylenediaminetetraacetic acid (EDTA).
At the end of the incubation, the reaction was quenched with 1.2 μL of 50 mM EDTA (EDTA was not added to the positive control wells at this point; see above). Following a 5-min incubation, each well received 10 μL of a 1:1:3 mixture of anti-phosphotyrosine antibody, 10×, PTK green tracer, 10× (vortexed), FP dilution buffer, respectively (all from PanVera, cat. # P2837). The plate was covered, incubated for 30 min at room temperature and the fluorescence polarization was read on the Analyst.
The IC50 values shown in Table 1 are averages of three independent measurements.

[2] = biological target: CSF-1R (Homo sapiens, UniProt P07333); assay: Peptide (non-phosphorylated) assay, fluorescence polarization competition immunoassay; assay type: biochemical; settings: 0.7 nM CSF-1R, 308 μM SYEGNSYTFIDPTQ peptide, 1 mM ATP, 80 min; mean of at least three determinations; read-out: c-fms Peptide IC50
Chain of CSF-1R (P07333 20-972): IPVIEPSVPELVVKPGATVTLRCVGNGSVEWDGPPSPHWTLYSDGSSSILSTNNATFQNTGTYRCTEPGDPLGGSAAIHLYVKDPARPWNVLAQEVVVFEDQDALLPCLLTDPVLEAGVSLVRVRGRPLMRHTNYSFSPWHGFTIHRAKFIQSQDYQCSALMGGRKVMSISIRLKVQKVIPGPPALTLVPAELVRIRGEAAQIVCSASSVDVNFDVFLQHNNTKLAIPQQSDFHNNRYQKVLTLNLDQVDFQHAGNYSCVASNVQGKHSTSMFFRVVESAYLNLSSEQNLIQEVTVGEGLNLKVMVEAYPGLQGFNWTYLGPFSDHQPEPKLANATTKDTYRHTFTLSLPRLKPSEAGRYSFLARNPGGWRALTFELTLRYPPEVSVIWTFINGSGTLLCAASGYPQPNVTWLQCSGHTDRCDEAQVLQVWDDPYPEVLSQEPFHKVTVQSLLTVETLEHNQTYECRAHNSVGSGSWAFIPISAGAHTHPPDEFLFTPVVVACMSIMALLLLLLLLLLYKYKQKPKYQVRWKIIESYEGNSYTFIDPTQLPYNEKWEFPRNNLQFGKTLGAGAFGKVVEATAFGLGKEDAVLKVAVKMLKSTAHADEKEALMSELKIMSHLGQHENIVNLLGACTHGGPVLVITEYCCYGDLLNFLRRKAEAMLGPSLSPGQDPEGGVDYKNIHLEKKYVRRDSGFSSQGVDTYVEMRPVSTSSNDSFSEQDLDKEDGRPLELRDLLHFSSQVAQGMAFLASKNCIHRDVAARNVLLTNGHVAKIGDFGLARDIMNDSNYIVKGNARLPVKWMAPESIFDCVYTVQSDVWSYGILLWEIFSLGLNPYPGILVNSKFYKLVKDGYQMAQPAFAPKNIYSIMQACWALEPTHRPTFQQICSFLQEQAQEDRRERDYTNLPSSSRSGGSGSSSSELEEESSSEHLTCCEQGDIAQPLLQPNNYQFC
Outline: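 Human CSF-1R kinase reaction started with ATP and run 80 min at room temperature, then stopped with EDTA. Phosphopeptide detected by fluorescence polarization competition using anti-phosphotyrosine antibody and PTK green tracer after 30 min. Controls used 4% DMSO, with EDTA added before reaction start for positive controls.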

Chain of c-fms (P07333 20-972): as above

| IC50 [1] | IC50 [2] | SMILES |
| --- | --- | --- |
| > 1000 nM | – | CNC(=O)c1cn(-c2ccc3c(c2)CCC3)c2nc(Nc3cccc(C(=O)N4CCCCC4)c3)ncc2c1=O [Cpd 113, 8-indan-5-yl-5-oxo-2-[3-(piperidine-1-carbonyl)-phenylamino]-5,8-dihydro-pyrido[2,3-d]pyrimidine-6-carboxylic acid methylamide] |
| – | 0.71 nM | CONC(=O)c1cn(-c2ccc3c(c2)CCC3)c2nc(Nc3ccc(C4CCN(C)CC4(F)F)cc3)ncc2c1=O (stereo not drawn) [Cpd 237, 2-[4-(3,3-difluoro-1-methyl-piperidin-4-yl)-phenylamino]-8-indan-5-yl-5-oxo-5,8-dihydro-pyrido[2,3-d]pyrimidine-6-carboxylic acid methoxy-amide] |
| – | 68 nM | CONC(=O)c1cn(-c2ccc3c(c2)CCC3)c2nc(Nc3cccc(N4CCN(S(=O)(=O)C(F)(F)F)CC4)c3)ncc2c1=O [Cpd 202, 8-indan-5-yl-5-oxo-2-[3-(4-trifluoromethanesulfonyl-piperazin-1-yl)-phenylamino]-5,8-dihydro-pyrido[2,3-d]pyrimidine-6-carboxylic acid methoxy-amide] |
| – | 1.8 nM | CC(=O)N1CCC(c2ccc(Nc3ncc4c(=O)c(C(N)=O)cn(-c5ccc6c(c5)CCC6)c4n3)cc2)CC1 [Cpd 126, 2-[4-(1-acetyl-piperidin-4-yl)-phenylamino]-8-indan-5-yl-5-oxo-5,8-dihydro-pyrido[2,3-d]pyrimidine-6-carboxylic acid amide] |
| 2.6 nM | – | NC(=O)c1cn(-c2ccc3c(c2)CCC3)c2nc(Nc3ccc(CN4CCCCC4)cc3)ncc2c1=O [Cpd 119, 8-indan-5-yl-5-oxo-2-(4-piperidin-1-ylmethyl-phenylamino)-5,8-dihydro-pyrido[2,3-d]pyrimidine-6-carboxylic acid amide] |
| – | 1.2 nM | CONC(=O)c1cn(-c2ccc3c(c2)CCC3)c2nc(Nc3ccc(CCN4CCN(C(=O)C(F)(F)F)CC4)cc3)ncc2c1=O [Cpd 148, 8-indan-5-yl-5-oxo-2-(4-{2-[4-(2,2,2-trifluoro-acetyl)-piperazin-1-yl]-ethyl}-phenylamino)-5,8-dihydro-pyrido[2,3-d]pyrimidine-6-carboxylic acid methoxy-amide] |
| – | 1.2 nM | CCc1ccc(-n2cc(C(=O)NOC)c(=O)c3cnc(Nc4ccc(C5CCN(CCc6ccccc6)CC5)cc4)nc32)cc1 [Cpd 295, 8-(4-ethyl-phenyl)-5-oxo-2-[4-(1-phenethyl-piperidin-4-yl)-phenylamino]-5,8-dihydro-pyrido[2,3-d]pyrimidine-6-carboxylic acid methoxy-amide] |
| – | 1.6 nM | CONC(=O)c1cn(-c2ccc3c(c2)CCC3)c2nc(Nc3ccc(CCN4CC(F)(F)C4)cc3)ncc2c1=O [Cpd 270, 2-{4-[2-(3,3-difluoro-azetidin-1-yl)-ethyl]-phenylamino}-8-indan-5-yl-5-oxo-5,8-dihydro-pyrido[2,3-d]pyrimidine-6-carboxylic acid methoxy-amide] |
| – | 1.4 nM | CONC(=O)c1cn(-c2ccc3c(c2)CCC3)c2nc(Nc3cccc(CCN4CCN(S(C)(=O)=O)CC4)c3)ncc2c1=O [Cpd 203, 8-indan-5-yl-2-{3-[2-(4-methanesulfonyl-piperazin-1-yl)-ethyl]-phenylamino}-5-oxo-5,8-dihydro-pyrido[2,3-d]pyrimidine-6-carboxylic acid methoxy-amide] |
| – | 1.9 nM | CCONC(=O)c1cn(C2CCCC2)c2nc(Nc3ccc(C4CCN(C(C)=O)CC4)cc3)ncc2c1=O [Cpd 47, 2-[4-(1-acetyl-piperidin-4-yl)-phenylamino]-8-cyclopentyl-5-oxo-5,8-dihydro-pyrido[2,3-d]pyrimidine-6-carboxylic acid ethoxy-amide] |
| – | 1.2 nM | CONC(=O)c1cn(-c2ccc3c(c2)CCC3)c2nc(Nc3ccc(C4CCN(C(C)=O)CC4)cc3)ncc2c1=O [Cpd 69, 2-[4-(1-acetyl-piperidin-4-yl)-phenylamino]-8-indan-5-yl-5-oxo-5,8-dihydro-pyrido[2,3-d]pyrimidine-6-carboxylic acid methoxy-amide] |
| – | 0.5 nM | COCCOc1ccc(Nc2ncc3c(=O)c(C(=O)NOC)cn(-c4ccc5c(c4)CCC5)c3n2)cc1OCCOC [Cpd 314, 2-[3,4-bis-(2-methoxy-ethoxy)-phenylamino]-8-indan-5-yl-5-oxo-5,8-dihydro-pyrido[2,3-d]pyrimidine-6-carboxylic acid methoxy-amide] |
| – | 57 nM | O=C(c1cn(C2CCCC2)c2nc(Nc3ccc(CCN4CCCC4)cc3)ncc2c1=O)N1CCOCC1 [Cpd 42, 8-cyclopentyl-6-(morpholine-4-carbonyl)-2-[4-(2-pyrrolidin-1-yl-ethyl)-phenylamino]-8H-pyrido[2,3-d]pyrimidin-5-one] |
| – | 1.2 nM | CC(C)ONC(=O)c1cn(-c2ccc3c(c2)CCC3)c2nc(Nc3ccc(CCN4CCCC4)cc3)ncc2c1=O [Cpd 133, 8-indan-5-yl-5-oxo-2-[4-(2-pyrrolidin-1-yl-ethyl)-phenylamino]-5,8-dihydro-pyrido[2,3-d]pyrimidine-6-carboxylic acid isopropoxy-amide] |
| – | 0.8 nM | CONC(=O)c1cn(-c2cccc(C(F)(F)F)c2)c2nc(Nc3ccc(C4CCN(C)CC4)cc3)ncc2c1=O |

| SMILES | IC50 [1] | IC50 [2] |
| --- | --- | --- |
| CONC(=O)c1cn(-c2ccc3c(c2)CCC3)c2nc(Nc3ccc(CCN4C5CCC4CC5)cc3)ncc2c1=O [Cpd 110, 2-{4-[2-(7-aza-bicyclo[2.2.1]hept-7-yl)-ethyl]-phenylamino}-8-indan-5-yl-5-oxo-5,8-dihydro-pyrido[2,3-d]pyrimidine-6-carboxylic acid methoxy-amide] | – | 0.46 nM |
| CONC(=O)c1cn(-c2ccc3c(c2)CCC3)c2nc(Nc3cccc(OC4CN5CCC4CC5)c3)ncc2c1=O (stereo not drawn) [Cpd 267, 2-[3-(1-aza-bicyclo[2.2.2]oct-3-yloxy)-phenylamino]-8-indan-5-yl-5-oxo-5,8-dihydro-pyrido[2,3-d]pyrimidine-6-carboxylic acid methoxy-amide] | – | 0.42 nM |
| CONC(=O)c1cn(-c2ccc3c(c2)CCC3)c2nc(Nc3ccc([C@@]4(O)CCN(C)C[C@@H]4O)cc3)ncc2c1=O [Cpd 236, 2-{4-[(3S,4S)-(3,4-dihydroxy-1-methyl-piperidin-4-yl)]-phenylamino}-8-indan-5-yl-5-oxo-5,8-dihydro-pyrido[2,3-d]pyrimidine-6-carboxylic acid methoxy-amide] | – | 0.47 nM |
| CCc1ccc(-n2cc(C(=O)NOC)c(=O)c3cnc(Nc4cccc(OC5CN6CCC5CC6)c4)nc32)cc1 (stereo not drawn) [Cpd 247, 2-[3-(1-aza-bicyclo[2.2.2]oct-3-yloxy)-phenylamino]-8-(4-ethyl-phenyl)-5-oxo-5,8-dihydro-pyrido[2,3-d]pyrimidine-6-carboxylic acid methoxy-amide] | – | 0.59 nM |
| CONC(=O)c1cn(-c2ccc3c(c2)CCC3)c2nc(Nc3ccc([C@]4(O)CCN(C)C[C@H]4O)cc3)ncc2c1=O [Cpd 250, 2-{4-[(3R,4R)-(3,4-dihydroxy-1-methyl-piperidin-4-yl)]-phenylamino}-8-indan-5-yl-5-oxo-5,8-dihydro-pyrido[2,3-d]pyrimidine-6-carboxylic acid methoxy-amide] | – | 0.39 nM |
| CCc1ccc(-n2cc(C(=O)NOC)c(=O)c3cnc(Nc4ccc([C@]5(O)CCN(C)C[C@H]5O)cc4)nc32)cc1 [Cpd 249, 2-{4-[(3R,4R)-(3,4-dihydroxy-1-methyl-piperidin-4-yl)]-phenylamino}-8-(4-ethyl-phenyl)-5-oxo-5,8-dihydro-pyrido[2,3-d]pyrimidine-6-carboxylic acid methoxy-amide] | – | 0.55 nM |
